Laboratory results published in US11035851B2, “Method of identifying cosmetic agents for moisturizing skin” (The Procter & Gamble Company, priority 2016, dated 2021).

Test system: epidermal gene expression (GeneTitan U219 probes)
Assay: Genomic evaluation of LCM-derived epidermal samples before vs. after surfactant (SLS) challenge, leg controlled application test
Format: in vivo, human
Conditions: for Significant Beyond Chance / Number of Probes (significantly different): summer, after 5 day 1% SLS treatment vs. baseline; for Number of Probes (significantly different): p<0.05, approximately 2465 probes expected by chance
Procedure: 25 ng of purified RNA is converted to biotin-labeled cRNA copies using the Affymetrix HT 3′ IVT Express kit (Cat. #901253) and protocol provided as executed on a Beckman Biomek® FX^p Laboratory Automation Workstation (Beckman Cat. #A31842), or equivalent. In brief, 500 ng of total RNA is reverse-transcribed into cDNA copies using oligo-dT primers and reverse transcriptase followed by second strand synthesis using DNA polymerase I. Following purification, the cDNA library is used as a template for generating biotin-labeled cRNA copies using T7 RNA polymerase and biotinylated dUTP. Biotinylated cRNA is fragmented by limited alkaline hydrolysis and then hybridized overnight to Affymetrix GeneTitan® U219 array plates using the Affymetrix GeneTitan® instrument and protocol provided. Following processing, chip images are converted to numeric data using the PLIER algorithm as executed in the Affymetrix GeneChip Expression Console.
A clinical study was conducted to conduct a genomic evaluation of subjects with inherently dry skin versus subjects with inherently normal moisturized skin in the winter season (phase 1) and summer season (phase 2. The clinical study design for each phase was a leg controlled application test (LCAT) protocol. The phase 2 portion of the test also included a determination of genomic differences between subjects that are treated with a drying agent (“surfactant challenged”).
Phase 2 clinical design: human subjects from phase 1 were recalled during the summer season (i.e., June-August) and maintained in their respective cohort groups. A cohort of 29 subjects was recalled for the inherently dry skin group, while a cohort of 12 subjects was recalled for the inherently normal moisturized skin group. All subjects were pre-conditioned with Olay® soap bar for 7 days (days −7 to −1) followed by a 2 day regression. Subjects were instructed to abstain from washing their legs with any products and from using any leave-on products on their legs during the pretreatment period. Dry Skin Grade measurements, full thickness biopsies, and other skin health measurements (e.g., TEWL) were taken on day 1. Subjects with a dry skin score of greater than 4.0 were excluded from biopsies. The full thickness biopsies were later separated into epidermal and dermal sections via LCM, and the epidermal section was used for genomic analysis.
On days 3-7 (5 consecutive days) subjects who have a Dryness Grade less than 3.0 on one or both legs continue on the study, all other subjects were excused from the study. The clinical staff conducted visual grading at a site adjacent to the biopsy site, followed by a surfactant challenge (i.e., treating the site with 1% sodium lauryl sulfate (“SLS”) solution and occluding the site with a Hill Top Chamber® brand occlusive patch test system for 30 minutes). Each day the dryness was visually graded prior to the SLS treatment. On day 8 (24 hrs. following Day 7), bio-instruments measures were taken, but biomarkers and biopsies were only taken if the surfactant challenged site has a Dryness Grade below 4.0.
Results: 237 LCM-derived epidermal samples were processed on GeneTitan® U219 chips as described above. Of these, 11 were statistical outliers that were eliminated from the data set. For purposes of statistical treatment, the left and right leg samples from each subject, at each phase of the study, were considered replicates. An ANOVA model was used to determine group differences.

[1] = P2 D5 Dry vs. P2 BL Dry: inherently dry skin
[2] = P2 D5 Healthy vs. P2 BL Healthy: inherently normal moisturized skin

CCCCCCCCCCCCOS(=O)(=O)[O-].[Na+] [SLS, sodium lauryl sulfate]
Significant Beyond Chance [1]: Yes
Number of Probes (significantly different) [1]: 10696
Significant Beyond Chance [2]: Yes
Number of Probes (significantly different) [2]: 6110
Difference in probe expression, paired (within-group) comparison before vs. after SLS treatment (within dry skin or normal/healthy skin groups, summer phase): significant differences
